The source of these data is ChEMBL document CHEMBL4706731, “Semisynthetic Derivatives of the Verticillin Class of Natural Products through Acylation of the C11 Hydroxy Group” (ACS Med Chem Lett, 2021).

Holding throughout (type): functional, cell-based
One experiment deals with MDA-MB-231. In words: Cytotoxicity against human MDA-MB-231 cells assessed as inhibition of cell proliferation measured after 72 hrs by CellTiter 96 AQueous One Solution Cell Proliferation assay. Particulars: MDA-MB-231, 72 h.
Another experiment deals with OVCAR-3. In words: Cytotoxicity against human OVCAR-3 cells assessed as inhibition of cell proliferation measured after 72 hrs by CellTiter 96 AQueous One Solution Cell Proliferation assay. To be noted: OVCAR-3, 72 h.
The next experiment relates to MDA-MB-435. In words: Cytotoxicity against human MDA-MB-435 cells assessed as inhibition of cell proliferation measured after 72 hrs by CellTiter 96 AQueous One Solution Cell Proliferation assay. Particulars: MDA-MB-435, 72 h.

What is called IC50 is the concentration needed to halve the response being measured.

With `CN1C(=O)[C@]23SS[C@@]1(C)C(=O)N2[C@H]1Nc2ccccc2[C@@]1([C@@]12c4ccccc4N[C@@H]1N1C(=O)[C@]4(C)SS[C@]1(C(=O)N4C)[C@H]2O)[C@@H]3O`, the half-maximal inhibitory concentration (IC50) in the experiment with MDA-MB-231 amounted to 23 nM; in the experiment on OVCAR-3, 36 nM; in the experiment on MDA-MB-435 it was 18 nM.
For the molecule `CC[C@@]12SS[C@]3(C(=O)N1C)[C@@H](O)[C@]1([C@@]45c6ccccc6N[C@@H]4N4C(=O)[C@]6(CC)SS[C@]4(C(=O)N6C)[C@H]5O)c4ccccc4N[C@@H]1N3C2=O`, the figures for the half-inhibitory concentration (IC50) in the experiment on MDA-MB-231, in the experiment with OVCAR-3 and with MDA-MB-435 were 31 nM, 229 nM and 44 nM, respectively.
The like results for `CC[C@@]12SS[C@]3(C(=O)N1C)[C@@H](O)[C@]1([C@@]45c6ccccc6N[C@@H]4N4C(=O)[C@]6(CC)SS[C@]4(C(=O)N6C)[C@H]5OS(=O)(=O)c4ccc(F)cc4)c4ccccc4N[C@@H]1N3C2=O` were, in that order, 49 nM, 79 nM and 31 nM.
Turning to `CN1C(=O)[C@]23SS[C@@]1(C)C(=O)N2[C@H]1Nc2ccccc2[C@@]1([C@@]12c4ccccc4N[C@@H]1N1C(=O)[C@]4(C)SS[C@]1(C(=O)N4C)[C@H]2OC(=O)CCC(=O)O)[C@@H]3O`, the values for the IC50 with MDA-MB-231, in the experiment on OVCAR-3 and in the experiment with MDA-MB-435 were 12 nM, 33 nM and 9 nM, respectively.
As to `CC[C@@]12SS[C@]3(C(=O)N1C)[C@@H](O)[C@]1([C@@]45c6ccccc6N[C@@H]4N4C(=O)[C@]6(CC)SS[C@]4(C(=O)N6C)[C@H]5OC(=O)C4CC4)c4ccccc4N[C@@H]1N3C2=O`, the concentration for half-maximal inhibition (IC50) in the experiment with MDA-MB-231 was 12 nM; in the experiment on OVCAR-3 it was 105 nM; in the experiment on MDA-MB-435, 24 nM.
For the molecule `CC[C@@]12SS[C@]3(C(=O)N1C)[C@@H](O)[C@]1([C@@]45c6ccccc6N[C@@H]4N4C(=O)[C@]6(CC)SS[C@]4(C(=O)N6C)[C@H]5OC(=O)C(C)(C)C)c4ccccc4N[C@@H]1N3C2=O`, the half-inhibitory concentration (IC50) with MDA-MB-231 came to 20 nM; in the experiment on OVCAR-3, 72 nM; in the experiment with MDA-MB-435 it was 21 nM.
Turning to `CCCC(=O)O[C@H]1[C@]2([C@@]34c5ccccc5N[C@@H]3N3C(=O)[C@]5(CC)SS[C@]3(C(=O)N5C)[C@H]4O)c3ccccc3N[C@@H]2N2C(=O)[C@]3(CC)SS[C@]12C(=O)N3C`, the half-inhibitory concentration (IC50) was 17 nM in the experiment with MDA-MB-231, 25 nM with OVCAR-3 and 19 nM in the experiment on MDA-MB-435.
Turning to `CC[C@@]12SS[C@]3(C(=O)N1C)[C@@H](O)[C@]1([C@@]45c6ccccc6N[C@@H]4N4C(=O)[C@]6(CC)SS[C@]4(C(=O)N6C)[C@H]5OC(=O)CCC(=O)O)c4ccccc4N[C@@H]1N3C2=O`, the half-maximal inhibitory concentration (IC50) in the experiment with MDA-MB-231 came to 13 nM; in the experiment on OVCAR-3 it was 133 nM; in the experiment with MDA-MB-435, 21 nM.
For `CC[C@@]12SS[C@]3(C(=O)N1C)[C@@H](O)[C@]1([C@@]45c6ccccc6N[C@@H]4N4C(=O)[C@]6(CC)SS[C@]4(C(=O)N6C)[C@H]5OC(=O)N(C)C)c4ccccc4N[C@@H]1N3C2=O`, in that order: 12 nM, 19 nM and 9 nM.
`CC[C@@]12SS[C@]3(C(=O)N1C)[C@@H](O)[C@]1([C@@]45c6ccccc6N[C@@H]4N4C(=O)[C@]6(CC)SS[C@]4(C(=O)N6C)[C@H]5OC(C)=O)c4ccccc4N[C@@H]1N3C2=O`: the IC50 with MDA-MB-231 is 21 nM; in the experiment with OVCAR-3 it was 96 nM; in the experiment with MDA-MB-435 it was 41 nM.
Take `CCOC(=O)O[C@H]1[C@]2([C@@]34c5ccccc5N[C@@H]3N3C(=O)[C@]5(CC)SS[C@]3(C(=O)N5C)[C@H]4O)c3ccccc3N[C@@H]2N2C(=O)[C@]3(CC)SS[C@]12C(=O)N3C`: the half-inhibitory concentration (IC50) in the experiment on MDA-MB-231 came to 7 nM; in the experiment with OVCAR-3 it was 137 nM; in the experiment on MDA-MB-435, 11 nM.
As for `CC[C@@]12SS[C@]3(C(=O)N1C)[C@@H](O)[C@]1([C@@]45c6ccccc6N[C@@H]4N4C(=O)[C@]6(CC)SS[C@]4(C(=O)N6C)[C@H]5OC(=O)NC)c4ccccc4N[C@@H]1N3C2=O`, the concentration for half-maximal inhibition (IC50) in the experiment with MDA-MB-231 was 21 nM; in the experiment with OVCAR-3, 68 nM; in the experiment with MDA-MB-435, 22 nM.
Take `CC(=O)O[C@H]1C(=O)[C@@]2(C)[C@H]([C@H](OC(=O)c3ccccc3)[C@]3(O)C[C@H](OC(=O)[C@H](O)[C@@H](NC(=O)c4ccccc4)c4ccccc4)C(C)=C1C3(C)C)[C@]1(OC(C)=O)CO[C@@H]1C[C@@H]2O` [PACLITAXEL]: the IC50 in the experiment with MDA-MB-231 came out at 0.6 nM; with OVCAR-3 it was 1.8 nM; with MDA-MB-435 it was 0.3 nM.
